Assay results as given in patent US9200001B2, “Triazolyl PDE10 inhibitors” (Merck Sharp & Dohme Corp., priority 2011, dated 2015).

Target: human PDE10A2 (Homo sapiens (Human), UniProt Q9Y233)
Test: PDE10 fluorescence polarization (IMAP FP) inhibition assay
Format: biochemical
Details: FAM-labeled cAMP 50 nM, room temperature, read-out: PDE10a Ki
Method: The activity of the compounds in accordance with the present invention as PDE10 inhibitors may be readily determined without undue experimentation using a fluorescence polarization (FP) methodology that is well known in the art (Huang, W., et al., J. Biomol Screen, 2002, 7: 215).
In a typical experiment the PDE10 inhibitory activity of the compounds of the present invention was determined in accordance with the following experimental method. PDE10A2 was amplified from human fetal brain cDNA (Clontech, Mountain View, Calif.) using a forward primer corresponding to nucleotides 56-77 of human PDE10A2 (Accession No. AF127480, Genbank Identifier 4894716), containing a Kozak consensus sequence, and a reverse primer corresponding to nucleotides 2406-2413 of human PDE10A2 (Accession No. AF127480, Genbank Identifier 4894716). Amplification with Easy-A polymerase (Stratagene, La Jolla, Calif.) was 95° C. for 2 minutes followed by thirty three cycles of 95° C. for 40 seconds, 55° C. for 30 seconds, and 72° C. for 2 minutes 48 seconds. Final extension was 72° C. for 7 minutes. The PCR product was TA cloned into pcDNA3.2-TOPO (Invitrogen, Carlsbad, Calif.) according to standard protocol. AD293 cells with 70-80% confluency were transiently transfected with human PDE10A2/pcDNA3.2-TOPO using Lipofectamine 2000 according to manufacturer specifications (Invitrogen, Carlsbad, Calif.). Cells were harvested 48 hours post-transfection and lysed by sonication (setting 3, 10×5 sec pulses) in a buffer containing 20 mM HEPES, 1 mM EDTA and protease inhibitor cocktail (Roche). Lysate was collected by centrifugation at 75,000×g for 20 minutes. Supernatant containing the cytoplasmic fraction was used for evaluation of PDE10A2 activity. The fluorescence polarization assay for cyclic nucleotide phosphodiesterases was performed using an IMAP® FP kit supplied by Molecular Devices, Sunnyvale, Calif. (product # R8139). IMAP® technology has been applied previously to phosphodiesterase assays (Huang, W., et al., J. Biomol Screen, 2002, 7: 215). Assays were performed at room temperature in 384-well microtiter plates with an incubation volume of 20.2 μL. Solutions of test compounds were prepared in DMSO and serially diluted with DMSO to yield 8 μL of each of 10 solutions differing by 3-fold in concentration, at 32 serial dilutions per plate. 100% inhibition is determined using a known PDE10 inhibitor, which can be any compound that is present at 5,000 times its Ki value in the assay described as follows, such as papaverine (see Siuciak, et al. Neuropharmacology (2006) 51:386-396; Becker, et al. Behav Brain Res (2008) 186(2):155-60; Threlfell, et al., J Pharmacol Exp Ther (2009) 328(3):785-795), 2-{4-[pyridin-4-yl-1-(2,2,2-trifluoroethyl)-1H-pyrazol-3-yl]phenoxymethyl}quinoline succinic acid or 2-[4-(1-methyl-4-pyridin-4-yl-1H-pyrazol-3-yl)-phenoxymethyl]quinoline succinic acid (see Schmidt, et al. J Pharmacol Exp Ther (2008) 325:681-690; Threlfall, et al., J Pharmacol Exp Ther (2009) 328(3): 785-795). 0% of inhibition is determined by using DMSO (1% final concentrations).
A Labcyte Echo 555 (Labcyte, Sunnyvale, Calif.) is used to dispense 200 nL from each well of the titration plate to the 384 well assay plate. A solution of enzyme (1/1600 dilution from aliquots; sufficient to produce 20% substrate conversion) and a separate solution of FAM-labeled cAMP PDE from Molecular Devices (product # R7506), at a final concentration of 50 nM are made in the assay buffer (10 mM Tris HCl, pH 7.2, 10 mM MgCl2, 0.05% NaN3 0.01% Tween-20, and 1 mM DTT). The enzyme and the substrate are then added to the assay plates in two consecutive additions of 10 μL, and then shaken to mix. The reaction is allowed to proceed at room temperature for 30 minutes. A binding solution is then made from the kit components, comprised of 80% Solution A, 20% Solution B and binding reagent at a volume of 1600 the total binding solution. […]

human PDE10A2, sequence (Q9Y233 267-1055): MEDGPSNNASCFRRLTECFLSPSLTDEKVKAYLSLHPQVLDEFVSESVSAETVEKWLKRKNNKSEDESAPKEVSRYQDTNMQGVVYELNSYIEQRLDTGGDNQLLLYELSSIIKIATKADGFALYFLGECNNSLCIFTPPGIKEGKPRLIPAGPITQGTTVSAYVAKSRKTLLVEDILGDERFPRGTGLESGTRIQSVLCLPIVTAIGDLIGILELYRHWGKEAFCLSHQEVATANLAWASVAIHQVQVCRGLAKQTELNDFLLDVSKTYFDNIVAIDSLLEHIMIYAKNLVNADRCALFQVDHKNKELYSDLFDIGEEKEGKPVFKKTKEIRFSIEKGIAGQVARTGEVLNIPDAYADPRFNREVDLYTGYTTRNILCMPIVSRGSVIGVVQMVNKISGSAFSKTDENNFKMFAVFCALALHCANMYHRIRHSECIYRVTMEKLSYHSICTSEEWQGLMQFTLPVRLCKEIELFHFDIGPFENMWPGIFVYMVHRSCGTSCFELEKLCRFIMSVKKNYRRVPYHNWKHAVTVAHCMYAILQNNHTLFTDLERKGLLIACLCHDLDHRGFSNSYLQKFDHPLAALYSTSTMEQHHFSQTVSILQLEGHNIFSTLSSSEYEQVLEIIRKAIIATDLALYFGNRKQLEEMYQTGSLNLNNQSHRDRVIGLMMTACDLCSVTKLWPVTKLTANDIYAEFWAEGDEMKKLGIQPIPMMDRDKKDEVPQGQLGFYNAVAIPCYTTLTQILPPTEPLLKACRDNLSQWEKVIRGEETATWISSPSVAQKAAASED

| SMILES | Ki |
| --- | --- |
| Cc1nc(C2CC2c2nc3ccccc3[nH]2)cc(-n2nc(C)nc2C)n1 (stereo not shown) [Cpd 41, 2-(2-(6-(3,5-dimethyl-1H-1,2,4-triazol-1-yl)-2-methylpyrimidin-4-yl)cyclopropyl)-1H-benzo[d]imidazole] | 6.8 nM |
| Cc1nc([C@@H]2C[C@H]2c2cc3n(n2)CCCC3)cc(-n2nc(C)nc2C)n1 [Cpd 107, 2-{(1R,2R)-2-[6-(3,5-dimethyl-1H-1,2,4-triazol-1-yl)-2-methylpyrimidin-4-yl]cyclopropyl}-4,5,6,7-tetrahydropyrazolo[1,5-a]pyridine] | 60.7 nM |
| Cc1nc([C@@H]2C[C@H]2c2nc3ccccc3n2C)cc(-n2nc(C)nc2C(C)(C)C)n1 [Cpd 100, 2-{(1R,2R)-2-[6-(5-tert-butyl-3-methyl-1H-1,2,4-triazol-1-yl)-2-methylpyrimidin-4-yl]cyclopropyl}-1-methyl-1H-benzimidazole] | 13.8 nM |
| Cc1cc(-n2nc(C)nc2C)cc([C@@H]2C[C@H]2c2nc3ccccc3n2C)n1 (relative stereo) [Cpd 108, trans-2-{2-[4-(3,5-dimethyl-1H-1,2,4-triazol-1-yl)-6-methylpyridin-2-yl]cyclopropyl}-1-methyl-1H-benzimidazole] | 14.2 nM |
| Cc1nc([C@@H]2C[C@H]2c2nc3ccccc3n2C)cc(-n2nc(C)nc2C)n1 [Cpd 37, 2-((1R,2R)-2-(6-(3,5-dimethyl-1H-1,2,4-triazol-1-yl)-2-methylpyrimidin-4-yl)cyclopropyl)-1-methyl-1H-benzo[d]imidazole] | 1.4 nM |
| COc1nc([C@H]2C[C@@H]2c2nc3ccccc3n2C)cc(-n2nc(C)nc2C)n1 (relative stereo) [Cpd 111, trans-2-{2-[6-(3,5-dimethyl-1H-1,2,4-triazol-1-yl)-2-methoxypyrimidin-4-yl]cyclopropyl}-1-methyl-1H-benzimidazole] | 1.3 nM |
| Cc1nc(C)n(-c2cc([C@@H]3C[C@H]3c3nc4ccccc4n3C)nc(OCC3CCO3)n2)n1 (stereo partly drawn) [Cpd 138, 2-((1R,2R)-2-(6-(3,5-dimethyl-1H-1,2,4-triazol-1-yl)-2-(oxetan-2-ylmethoxy)pyrimidin-4-yl)cyclopropyl)-1-methyl-1H-benzo[d]imidazole] | 1.3 nM |
| COCc1nc(C)nn1-c1cc([C@H]2C[C@@H]2c2nc3ccccc3n2C)nc(C)n1 (stereo in doubt) [Cpd 86, 2-[2-{6-[5-(methoxymethyl)-3-methyl-1H-1,2,4-triazol-1-yl]-2-methylpyrimidin-4-yl}cyclopropyl]-1-methyl-1H-benzimidazole] | 1.4 nM |
| CCc1nc([C@H]2C[C@@H]2c2nc3ccccc3n2C)cc(-n2nc(C)nc2C)n1 (relative stereo) [Cpd 119, trans-2-{2-[6-(3,5-dimethyl-1H-1,2,4-triazol-1-yl)-2-ethylpyrimidin-4-yl]cyclopropyl}-1-methyl-1H-benzimidazole] | 1.2 nM |

Now from value to compound:

| Ki | SMILES |
| --- | --- |
| 0.88 nM | Cc1nc(C)n(-c2cc([C@@H]3C[C@H]3c3nc4ccccc4n3C)nc(C(C)(C)O)n2)n1 [Cpd 131, 2-(4-(3,5-dimethyl-1H-1,2,4-triazol-1-yl)-6-((1R,2R)-2-(1-methyl-1H-benzo[d]imidazol-2-yl)cyclopropyl)pyrimidin-2-yl)propan-2-ol] |
| 1.2 nM | Cc1nc(C)n(-c2cc([C@H]3C[C@@H]3c3nc4ccccc4n3C)nc(OCCF)n2)n1 (relative stereo) [Cpd 122, trans-2-{2-[6-(3,5-dimethyl-1H-1,2,4-triazol-1-yl)-2-(2-fluoroethoxy)pyrimidin-4-yl]cyclopropyl}-1-methyl-1H-benzimidazole] |
| 0.027 nM | COc1ccc(Cc2nc(C)nn2-c2cc([C@H]3C[C@@H]3c3nc4ccccc4[nH]3)nc(C)n2)cc1OC [Cpd 25, 2-((1S,2S)-2-(6-(5-(3,4-dimethoxybenzyl)-3-methyl-1H-1,2,4-triazol-1-yl)-2-methylpyrimidin-4-yl)cyclopropyl)-1H-benzo[d]imidazole] |
| 0.21 nM | COc1ccc(Cc2nc(C)nn2-c2cc(C3CC3c3ccc(C)cn3)nc(C)n2)cc1OC (stereo not shown) [Cpd 35, 4-(5-(3,4-dimethoxybenzyl)-3-methyl-1H-1,2,4-triazol-1-yl)-2-methyl-6-(2-(5-methylpyridin-2-yl)cyclopropyl)pyrimidine] |
